In one test the target is T1, monoamine oxidase-B (Homo sapiens, UniProt P27338).
T1 construct: gene MAOB
T1 sequence (P27338 2-520): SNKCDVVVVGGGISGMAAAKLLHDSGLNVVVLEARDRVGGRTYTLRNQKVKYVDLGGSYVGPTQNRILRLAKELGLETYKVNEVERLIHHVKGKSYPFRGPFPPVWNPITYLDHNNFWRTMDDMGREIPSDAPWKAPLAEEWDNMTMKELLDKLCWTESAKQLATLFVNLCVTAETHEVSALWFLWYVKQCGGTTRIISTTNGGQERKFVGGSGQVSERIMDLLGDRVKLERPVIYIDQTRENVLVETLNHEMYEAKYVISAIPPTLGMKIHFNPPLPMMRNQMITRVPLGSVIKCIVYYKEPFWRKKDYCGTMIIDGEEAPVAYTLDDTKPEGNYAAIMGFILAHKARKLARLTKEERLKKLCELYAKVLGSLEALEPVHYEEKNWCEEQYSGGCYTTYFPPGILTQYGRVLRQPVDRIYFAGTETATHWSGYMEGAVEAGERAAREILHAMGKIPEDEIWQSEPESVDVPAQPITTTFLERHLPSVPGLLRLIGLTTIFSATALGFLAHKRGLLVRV
Description: off-target panel enzyme assay (Eurofins), single concentration […]. Type of test: biochemical.

Test [1] concerns the target T2, serotonin (5-hydroxytryptamine) 2B (Homo sapiens, UniProt P41595).
T2 construct: gene HTR2B
Description: off-target panel of radioligand binding and functional assays (Eurofins), single concentration […].

Test [2] deals with T3, monoacylglycerol lipase (MAGL) (Mus musculus, UniProt O35678).
T3 construct: gene Mgll
T3 sequence (O35678 1-303): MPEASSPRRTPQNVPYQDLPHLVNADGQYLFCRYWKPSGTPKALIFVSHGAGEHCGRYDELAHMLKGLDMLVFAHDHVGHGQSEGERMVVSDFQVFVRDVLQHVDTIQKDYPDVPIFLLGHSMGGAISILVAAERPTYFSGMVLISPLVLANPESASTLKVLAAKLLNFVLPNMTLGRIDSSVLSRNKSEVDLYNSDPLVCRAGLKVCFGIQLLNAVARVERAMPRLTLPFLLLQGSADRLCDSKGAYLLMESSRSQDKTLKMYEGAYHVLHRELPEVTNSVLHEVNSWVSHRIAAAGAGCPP
Description: in vivo brain target occupancy by displacement of MAGL tracer T-211 (LC-MS/MS); brain 2-AG increase and AA decrease. Type of test: cell-based.

T2 sequence (P41595 whole entry): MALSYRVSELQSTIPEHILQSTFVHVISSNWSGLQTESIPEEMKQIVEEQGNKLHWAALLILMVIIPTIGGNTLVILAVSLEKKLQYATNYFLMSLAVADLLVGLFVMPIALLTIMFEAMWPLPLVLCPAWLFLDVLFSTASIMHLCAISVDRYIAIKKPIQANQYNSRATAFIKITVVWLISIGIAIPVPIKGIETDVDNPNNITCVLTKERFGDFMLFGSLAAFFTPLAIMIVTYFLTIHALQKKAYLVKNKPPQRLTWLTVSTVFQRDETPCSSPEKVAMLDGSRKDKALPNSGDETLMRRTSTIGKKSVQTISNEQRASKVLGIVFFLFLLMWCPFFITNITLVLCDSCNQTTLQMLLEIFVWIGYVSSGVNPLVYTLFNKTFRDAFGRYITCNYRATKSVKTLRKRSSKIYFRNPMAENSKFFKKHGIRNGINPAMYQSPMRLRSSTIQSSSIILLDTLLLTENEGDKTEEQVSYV

A word on the inhibition: it is the percentage by which the read-out fell short of the control. Take `Cc1ccc(COC2CN(C(=O)[C@H]3C[C@]4(COC(=O)N4)C3)C2)cc1Cl` [4f]: the figures for the inhibition at 10 µM (against monoamine oxidase-B; in test [1]) were < 50% and 81%, respectively. In addition, in test [2], the receptor occupancy at 1 mg/kg is > 99%.

The values are drawn from publication PMC11581214, “Compound 4f, a novel brain-penetrant reversible monoacylglycerol inhibitor, ameliorates neuroinflammation, neuronal cell loss, and cognitive impairment in mice with kainic acid-induced neurodegeneration” (PLOS ONE, 2024).
